# According to patent US12479816B2, “20-HETE formation inhibitors” (UNIVERSITY OF PITTSBURGH—OF THE COMMONWEALTH SYSTEM OF …, priority 2019, dated 2025):
# Key:
# [1] = target: T1, rCYP4F2 (Homo sapiens, UniProt P78329); assay: Inhibition of 20-HETE formation at 250 or 500 nM in rCYP4F2 incubations; format: biochemical; conditions: 500 nM compound; rCYP4F2 25 pmol/mL; read-out: rCYP4F2 % inh. @ 500 nM
# T1 sequence (P78329 5-520): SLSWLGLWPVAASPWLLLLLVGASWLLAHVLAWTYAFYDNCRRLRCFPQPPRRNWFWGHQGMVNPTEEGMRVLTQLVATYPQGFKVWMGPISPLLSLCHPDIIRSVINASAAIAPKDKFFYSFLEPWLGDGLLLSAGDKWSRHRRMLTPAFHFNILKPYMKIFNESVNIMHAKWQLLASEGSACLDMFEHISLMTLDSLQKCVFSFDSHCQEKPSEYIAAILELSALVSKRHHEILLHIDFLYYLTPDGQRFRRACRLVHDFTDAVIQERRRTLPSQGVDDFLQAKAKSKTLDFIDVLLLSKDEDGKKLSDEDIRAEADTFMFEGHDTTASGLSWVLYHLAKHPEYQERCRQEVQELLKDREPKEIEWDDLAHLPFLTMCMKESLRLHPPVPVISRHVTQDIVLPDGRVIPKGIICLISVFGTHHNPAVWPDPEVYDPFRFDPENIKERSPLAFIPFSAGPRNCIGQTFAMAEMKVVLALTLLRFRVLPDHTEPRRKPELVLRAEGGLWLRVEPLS
# Description: (§1) To screen the inhibitory effects against 20-HETE formation, compounds were screened in HLM, RLM, RKM and rCYP4F2 microsomal incubations. Compounds dissolved in either 100% methanol or 100% DMSO to yield 10 mM stock solution. Microsomal incubations containing HLM, RLM, RKM (300 μg/ml) or rCYP4F2 (25 pmol/mL), AA (100 μM), NADPH (1 mM) treated with test compounds at various concentrations (500 nM or 250 nM) in a 1 ml total volume in incubation buffer (0.12 M potassium phosphate buffer containing 5 mM magnesium chloride). Reaction was started by adding NADPH to the incubates and was carried out at 37° C. in a shaking water bath for 20 min. Reaction was stopped by placing tubes on ice, followed by adding 125 μl 20-HETE-d6 as internal standard to each sample. Microsomal incubations were extracted with 3 ml ethyl ether twice, dried down under nitrogen gas and reconstituted in 125 μl 80:20 methanol:deionized H2O for analysis. 20-HETE formation was quantified using a validated UPLC-MS/MS assay and normalized by vehicle group. Each compound had three replications (n=3). Vehicle group was used as control to calculate percentage of 20-HETE formation rate. HET0016 (250 nM) was used as positive control. Incubates without NADPH group served as the negative control. An Acquity ultra performance LC autosampler (Waters, Milford, MA) was used to isolate 20-HETE on an UPLC BEH C18, 1.7 μm (2.1×100 mm) reversed-phase column (Waters, Milford, MA) protected by a guard column (2.1×5 mm; Waters, Milford, MA) of the same packing material. Column temperature was maintained at 55° C. Mobile phases consisted of 0.005% acetic acid, 5% acetonitrile in deionized water (A) and 0.005% acetic acid in acetonitrile (B). The flow rate for mobile phases is 0.5 ml/min. The initial mixture of mobile phase was 65:35 of A and B. Mobile phase B increased at 0.4 minutes after injection from 35% to 70% in a linear gradient over 4 minutes, and again increased to 95% over 0.5 minutes where it remained for 0.3 minutes. This was followed by a linear return to initial conditions over 0.1 minutes with a 1.5 minute pre-equilibration period prior to the next sample run. Total run time was 6.4 minutes for each injection. Injection volumes were 7.5 μl. Mass spectrometric analysis was carried out using a TSQ Quantum Ultra (Thermo Fisher Scientific, San Jose, CA) triple quadrupole mass spectrometer using heated electrospray ionization (HESI). Mass spectrometer was operated in negative selective reaction monitoring (SRM) mode with unit resolutions at both Q1 and Q3 set at 0.70 Da full width at half maximum. Scan time was set at 0.01 s and collision gas pressure was 1.3 mTorr. Quantitation of 20-HETE by SRM was performed by monitoring the m/z. Analytical data was acquired and analyzed using Xcaliber 3.0 data system (ThermoFinnigan, San Jose, CA).
# [2] = tested on: 20-HETE formation (CYP4) in RLM; assay: Inhibition of 20-HETE formation at 250 or 500 nM in RLM microsomal incubations; format: biochemical, rat; conditions: 500 nM compound; RLM 300 μg/ml
# Description: as §1
# [3] = tested on: 20-HETE formation (CYP4) in HLM; assay: Inhibition of 20-HETE formation at 250 or 500 nM in HLM microsomal incubations; format: biochemical, human; conditions: 500 nM compound; HLM 300 μg/ml, AA 100 μM, 20 min
# Description: as §1
Structure (SMILES),inhibition at 0.5 µM [1],RLM % inh. @ 500 nM [2],HLM % inh. @ 500 nM [3]
"Clc1cccc(CC2CCN(c3cn[nH]c3)CC2)c1 [Compound 90, 4-(3-chlorobenzyl)-1-(1H-pyrazol-4-yl)piperidine]",70.3%,20.80%,67%
"O=S1(=O)CCc2cc(C3CCN(c4ccn[nH]4)CC3)ccc21 [Compound 106, 5-(1-(1H-Pyrazol-5-yl)piperidin-4-yl)-2,3-dihydrobenzo[b]thiophene 1,1-dioxide]",0%,0.00%,0.00%
"c1ccc(SC2CCN(c3ccn[nH]3)CC2)cc1 [Compound 39, 4-(Phenylthio)-1-(1H-pyrazol-5-yl)piperidine]",22.7%,0.00%,6.00%
"O=C(c1ccc(C2CCN(c3cn[nH]c3)CC2)cc1)N1CCCC1 [Compound 77, (4-(1-(1H-Pyrazol-4-yl)piperidin-4-yl)phenyl)(pyrrolidin-1-yl)methanone]",55%,13.80%,84.4%
"O=[N+]([O-])c1ccc(C2CCN(c3ccn[nH]3)CC2)cc1 [Compound 112, 4-(4-Nitrophenyl)-1-(1H-pyrazol-5-yl)piperidine]",41.3%,20.30%,21.90%
"COc1ccc(SC2CCN(c3ccn[nH]3)CC2)cc1 [Compound 68, 4-((4-Methoxyphenyl)thio)-1-(1H-pyrazol-5-yl)piperidine]",70.9%,0%,48%
"FC(F)(F)c1ccnc(C2CCN(c3ccn[nH]3)CC2)c1 [Compound 87, 2-(1-(1H-Pyrazol-5-yl)piperidin-4-yl)-4-(trifluoromethyl)pyridine]",7.4%,2.70%,15.6%
"COc1ccccc1C1CCN(c2ccn[nH]2)CC1 [Compound 21, 4-(2-Methoxyphenyl)-1-(1H-pyrazol-5-yl)piperidine]",2%,0.00%,8.80%
"O=S(=O)(c1ccc(C2CCN(c3cn[nH]c3)CC2)cc1)N1CCCC1 [Compound 85, 1-(1H-Pyrazol-4-yl)-4-(4-(pyrrolidin-1-ylsulfonyl)phenyl)piperidine]",64%,0.00%,81.3%
"Nc1ccc(C2CCN(c3cn[nH]c3)CC2)cc1 [Compound 105, 4-(1-(1H-pyrazol-4-yl)piperidin-4-yl)aniline]",78%,17.00%,77.30%
"O=S1(=O)CCc2cc(C3CCN(c4cn[nH]c4)CC3)ccc21 [Compound 102, 5-(1-(1H-Pyrazol-4-yl)piperidin-4-yl)-2,3-dihydrobenzo[b]thiophene 1,1-dioxide]",27.9%,0.00%,36.50%
"COc1ccc(CC2CCN(c3ccn[nH]3)CC2)cc1 [Compound 79, 4-(4-Methoxybenzyl)-1-(1H-pyrazol-5-yl)piperidine]",62%,4.00%,60%
"COC(=O)c1cccc(C2CCN(c3ccn[nH]3)CC2)c1 [Compound 56, Methyl 3-(1-(1H-pyrazol-5-yl)piperidin-4-yl)benzoate]",11.4%,0.00%,0.00%
"COc1cc(CC2CCN(c3cn[nH]c3)CC2)ccn1 [Compound 98, 4-((1-(1H-Pyrazol-4-yl)piperidin-4-yl)methyl)-2-methoxypyridine]",25%,5.00%,37.20%
"O=C(c1ccc(C2CCN(c3ccn[nH]3)CC2)cc1)N1CCCC1 [Compound 78, (4-(1-(1H-Pyrazol-5-yl)piperidin-4-yl)phenyl)(pyrrolidin-1-yl)methanone]",31%,0.00%,83.6%
"Clc1cccc(CC2CCN(c3ccn[nH]3)CC2)c1 [Compound 91, 4-(3-Chlorobenzyl)-1-(1H-pyrazol-5-yl)piperidine]",39.1%,0.00%,40.4%
"COc1ccccc1C1CCN(c2cn[nH]c2)CC1 [Compound 22, 4-(2-Methoxyphenyl)-1-(1H-pyrazol-4-yl)piperidine]",0%,0.00%,0.00%
"FC(F)(F)c1cncc(C2CCN(c3cn[nH]c3)CC2)c1 [Compound 95, 4 3-(1-(1H-Pyrazol-4-yl)piperidin-4-yl)-5-(trifluoromethyl)pyridine]",26.3%,15.40%,42.8%
"FC(F)(F)c1cncc(C2CCN(c3ccn[nH]3)CC2)c1 [Compound 103, 3-(1-(1H-Pyrazol-5-yl)piperidin-4-yl)-5-(trifluoromethyl)pyridine]",0%,0.00%,0.00%
"COc1cccc(SC2CCN(c3cn[nH]c3)CC2)c1 [Compound 76, 4-((3-Methoxyphenyl)thio)-1-(1H-pyrazol-4-yl)piperidine]",71%,0.00%,84%
"O=[N+]([O-])c1ccc(C2CCN(c3cn[nH]c3)CC2)cc1 [Compound 111, 4-(4-Nitrophenyl)-1-(1H-pyrazol-4-yl)piperidine]",60.1%,22.30%,43.5%
"Cc1cccc(CC2CCN(c3cn[nH]c3)CC2)c1 [Compound 94, 4-(3-Methylbenzyl)-1-(1H-pyrazol-4-yl)piperidine]",60.3%,13.50%,61.3%
"Fc1ccccc1SC1CCN(c2cn[nH]c2)CC1 [Compound 92, 4-((2-Fluorophenyl)thio)-1-(1H-pyrazol-4-yl)piperidine]",87.1%,0.00%,77.3%
O=C(c1ccc(C2CCN(c3ccn[nH]3)CC2)c(F)c1)N1CCCC1 [Compound 82],36%,2.00%,75%
"COC(=O)c1cccc(C2CCN(c3cn[nH]c3)CC2)c1 [Compound 57, Methyl 3-(1-(1H-pyrazol-4-yl)piperidin-4-yl)benzoate]",41.2%,43.10%,0.00%
"Cc1n[nH]cc1N1CCC(c2ccccc2)CC1 [Compound 37, 1-(3-Methyl-1H-pyrazol-4-yl)-4-phenylpiperidine]",31.9%,0.00%,0.00%
"FC(F)(F)c1ccnc(C2CCN(c3cn[nH]c3)CC2)c1 [Compound 86, 2-(1-(1H-pyrazol-4-yl)piperidin-4-yl)-4-(trifluoromethyl)pyridine]",49.4%,18.10%,37.9%
